Measured values taken from patent US6958353B2, “Imidazole derivatives or salts thereof and drugs containing the derivatives or the salts” (Hisamitsu Medical Co., Ltd., priority 2000, dated 2005).

Legend:
[1] = test system: RAW 264.7 cells; assay: Effect of inhibiting production of NO in LPS-stimulated RAW 264.7 cells (Griess reagent); type: cell-based, mouse; details: compound 2 μg/mL, RAW 264.7 cells stimulated with LPS 25 ng/mL
Method: (§1) Effect of Inhibiting Production of NO and IL-6
(§2) Growth of RAW 264.7 cells (mouse macrophage strains) was maintained in an RPMI 1640 medium containing 10% fetal bovine serum (FBS) and an antibiotic (10% FBS/RPMI) under culture conditions of 5% CO2 at 37° C. Upon testing, RAW 264.7 cells were washed with cold Dulbecco's phosphate buffered saline and subsequently removed from the plastic culture bottle by use of EDTA/trypsin. The thus-removed cells were centrifuged-and washed, followed by dilution with 10% FBS/RPMI to 4×10^5/mL. The cell suspension (0.5 mL) was added to each well of a 24-well-plate, and cultured under 5% CO2, at 37° C. for 16 hours. […] The live cells were washed once with 1% FBS/RPMI. Each test compound was diluted with the same medium, to thereby adjust the concentration to a predetermined level, and the liquid containing the test compound was added to the washed cells. […] NO contained in the culture supernatant was quantitated for its stable form (NO2^−) by use of a Griess reagent kit (product of Wako Pure Chemical Industries Ltd.). IL-6 was quantitated by use of an ELISA kit (product of Amersham) in accordance with the manual thereof. […]

[2] = test system: RAW 264.7 cells; assay: Effect of inhibiting production of IL-6 in LPS-stimulated RAW 264.7 cells (ELISA); type: cell-based; details: Mus musculus, RAW264.7, compound at 2 μg/mL, read-out: IL-6 production inhibitory effect Percent inhibition (%)
Method: as §1, §2

[3] = test system: carrageenan-induced edema; assay: Anti-inflammatory effect 1: effect against carrageenan-induced edema; type: in vivo; details: mouse, leg volume 9 days after carrageenan
Text: Anti-inflammatory Effect 1: Effect Against Carrageenan-induced Edema
Male ICR mice (4 weeks old, Japan Charles River Co., Ltd.) were pre-bred in a breeding cage for about one week, and-healthy mice were selected for the test.
(2) Drugs Employed in the Test:
Each test compound was suspended in a 0.5% carboxymethyl cellulose sodium (0.5% CMC-Na solution, product of Wako Pure Chemical Industries, Ltd.) or dissolved in purified water. The suspension or solution was perorally administered at a dose of 0.1 mL/10 g (body weight of each mouse).
λ-Carrageenan (Picnin A, product of Zushi Kagaku) dissolved in physiological saline was used.
The volume of the right rear leg of each mouse was measured by means of a plethysmometer (product of Ugo Basile). Subsequently, a 2% carrageenan solution (0.05 mL) was injected into the foot pad of the leg. Five days after the injection of carrageenan (inflammation-inducing agent), the volume of the leg was measured. The mice were divided into groups, each group containing 8 mice. From the day of division (i.e., 5 days after administration of carrageenan), each test compound was preorally administered once per day for four days. The leg volume was measured before administration of each test compound and on the day after the final administration day (i.e., 9 days after administration of carrageenan). Percent edema and percent inhibition due to the test compound were calculated in accordance with the following equations, respectively. Percent edema (%)=[(leg volume (mL) after inflammation treatment−leg volume (mL) before inflammation treatment)/(leg volume (mL) before inflammation treatment)]×100 Percent inhibition (%)=[percent edema of control group (%)−percent edema of test-compound-administered group (%))/(percent edema of control group (%))]×100

5-(2-[4-(1H-Imidazolylmethyl)phenoxy]ethyl)sulfanil-2,3-diphenylpyrazine [Compound 1I]
NO production inhibitory effect Percent inhibition (%) [1]: 62.8%

c1ccc(-c2ncc(OCCOc3ccc(Cn4ccnc4)cc3)nc2-c2ccccc2)cc1 [Compound 1A, 5-2-[4-(1H-imidazolylmethyl)phenoxy]ethoxy-2,3-diphenylpyrazine]
inhibition at 2 µg/mL ([1]; Mus musculus, RAW264.7, read-out: NO production inhibitory effect Percent inhibition (%)): 86% | inhibition at 2 µg/mL [2]: 54.6% | Percent inhibition (%) of carrageenan-induced edema ([3]; 3 mg/kg perorally once per day for four days): 30.5%

[O-][S+](CCOc1ccc(Cn2ccnc2)cc1)c1cnc(-c2ccccc2)c(-c2ccccc2)n1 (stereo not drawn) [Compound 1J, 5-(2-[4-(1H-imidazolylmethyl)phenoxy]ethyl)sulfinyl-2,3-diphenylpyrazine]
Percent inhibition (%) of carrageenan-induced edema ([3]; 10 mg/kg perorally once per day for four days): 41.2%

COc1ccc2c(c1)c(CC(=O)O)c(C)n2C(=O)c1ccc(Cl)cc1 [Indomethacin]
Percent inhibition (%) of carrageenan-induced edema ([3]; 1 mg/kg perorally once per day for four days): 23.8%
